Results taken from publication PMC6681393, “Intra-Nasally Administered Oligopeptide Lunasin Acts as a Possible Anti-Psychotic Agent in Mice Models” (Medicina, 2019).
Entries after “also recorded” stand apart in the source; their conditions may differ.

What was measured:
[1] = system: PCP-induced hyperlocomotion in ICR mice; experiment: Open field locomotor activity, phencyclidine-induced hyperlocomotion; format: in vivo, male albino ICR mice; settings: lunasin 0.1 or 1 nmol/mouse i.n. after PCP 5 mg/kg i.p., n = 7–8
[2] = system: brain monoamine levels, DOI-treated mice; experiment: Brain monoamines and metabolites, DOI-treated mice (UHPLC-TOF-MS); format: in vivo, male albino ICR mice; for 5-HIAA (brain level, ng/g): key: ↑: increase; ↓: decrease; N: normalization; Nc: no changes; for 5-HT (brain level, ng/g): key: ↑: increase; ↓: decrease; N: normalization; Nc: no changes; for HVA (brain level, ng/g): key: ↑: increase; ↓: decrease; N: normalization; Nc: no changes; for NA (brain noradrenaline level, ng/g): key: ↑: increase; ↓: decrease; N: normalization; Nc: no changes
[3] = system: dopamine D1 receptor subtype; settings: cited from earlier work
Description: (§1) Thus, lunasin at both doses normalized to control the level of behavioural changes after amphetamine in ...

[4] = system: amphetamine-induced hyper-locomotion; settings: direct central administration (intracisternally); cited from earlier work
Description: as §1

[5] = system: dopamine D2 receptor subtype; settings: cited from earlier work
Description: as §1

[6] = system: 5-HT2C receptor; experiment: [125I]DOI binding displacement, 5-HT2C; set-up: species or system human; settings: for inhibition of [125I]DOI specific binding: mean of duplicates (n = 2)
Protocol: (§2) The binding assay was performed by Eurofins Cerep (France) according to Bryant et al., 1996 [15]. Briefly, the binding of lunasin to 5-HT2A and 5-HT2C receptors was estimated on its ability to displace the specific binding of [^125I]DOI on cell membrane suspensions of HEK-293 cells expressing human recombinant 5-HT2A and 5-HT2C receptors. The radioligand [^125I]DOI has high affinity for 5-HT2A (Kd: 0.3 nM) and 5-HT2C (Kd: 0.9 nM) receptors. Lunasin was tested at concentrations of 1, 10 and 100 µM. The results were expressed as a percent of radioligand specific binding (n = 2).

[7] = system: brain monoamine levels, amphetamine-treated mice; experiment: Brain monoamines and metabolites, amphetamine-treated mice (UHPLC-TOF-MS); format: in vivo, male albino ICR mice; settings: for amphetamine-altered brain noradrenaline level (words): lunasin 0.1 nmol/mouse i.n.
[8] = system: locomotion altered by ketamine; settings: central (intracisternal) injection; cited from earlier work
[9] = system: apomorphine-induced climbing activity; settings: direct central administration (intracisternally); cited from earlier work
[10] = system: brain monoamine levels; experiment: Brain monoamines and metabolites, lunasin per se (UHPLC-TOF-MS); format: in vivo, male albino ICR mice; settings: lunasin i.n. alone; for brain dopamine level, lunasin per se (words): p < 0.01
[11] = system: amphetamine-induced hyperlocomotion in ICR mice; experiment: Open field locomotor activity, amphetamine-induced hyperlocomotion; format: in vivo, male albino ICR mice; settings: for Locomotion (distance, cm): 15-min open field; for Locomotion (distance, cm) / effect on amphetamine hyperlocomotion: n = 7–8
[12] = system: DOI-induced hyperlocomotion in ICR mice; experiment: Open field locomotor activity, DOI-induced hyperlocomotion; format: in vivo, male albino ICR mice; settings: for effect on DOI hyperactivity (words): lunasin 1 nmol/mouse i.n., p = 0.0137
[13] = system: locomotor activity of ICR mice; experiment: Open field locomotor activity, lunasin per se; format: in vivo, male albino ICR mice; settings: lunasin 0.1 or 1 nmol/mouse i.n. alone; 15-min test; n = 7–8
[14] = system: 5-HT2A receptor; experiment: [125I]DOI binding displacement, 5-HT2A; set-up: species or system human; settings: for inhibition of [125I]DOI specific binding: mean of duplicates (n = 2)
Protocol: as §2

[15] = lunasin 0.1 nmol/mouse i.n. + DOI 3 mg/kg i.p., n = 6–8
[16] = lunasin 1 nmol/mouse i.n. + DOI 3 mg/kg i.p., n = 6–8
[17] = lunasin 1 nmol/mouse i.n., p < 0.01
[18] = lunasin 0.1 and 1 nmol/mouse i.n., p < 0.0001
[19] = lunasin i.n., DOI-treated mice, dose not stated
[20] = 1 and 10 µM, HEK-293 cell membranes
[21] = lunasin 0.1 nmol/mouse i.n. + amphetamine 3 mg/kg i.p., n = 6–8
[22] = lunasin 1 nmol/mouse i.n. + amphetamine 3 mg/kg i.p., n = 6–8
[23] = lunasin i.n., amphetamine-treated mice, dose not stated

lunasin
effect on PCP hyperlocomotion (words) [1]: Phencyclidine behavioural effects were not influenced | effect on PCP hyperlocomotion (words) ([1]; listed as lunasin): did not influence the PCP effect; also recorded: we did not find any influence of lunasin on PCP-induced hyperactivity | 5-HIAA (brain level, ng/g) [2, 15]: N | 5-HT (brain level, ng/g) [2, 15]: N | NA (brain noradrenaline level, ng/g) [2, 15]: N | 5-HIAA (brain level, ng/g) [2, 16]: N | 5-HT (brain level, ng/g) [2, 16]: N | HVA (brain level, ng/g) [2, 16]: N | NA (brain noradrenaline level, ng/g) [2, 16]: N | DOI-altered brain HVA level [2, 17]: normalized the altered levels of HVA | DOI-altered brain noradrenaline level ([2]; lunasin 0.1 and 1 nmol/mouse i.n. (both tested doses), p < 0.01): reversed amphetamine-induced and DOI-induced (both tested doses) noradrenaline alterations to the control values | DOI-increased brain 5-HIAA level [2, 18]: reversed the DOI up-regulated levels of serotonin and 5-HIAA almost to the control values; also recorded: fully normalized them to the control values | DOI-increased brain serotonin level [2, 18]: reversed the DOI up-regulated levels of serotonin and 5-HIAA almost to the control values; also recorded: fully normalized them to the control values | brain monoamine levels, summary [2, 19]: fully normalized hyper-locomotion and brain monoamine levels | DOI-increased brain DOPAC level ([2]; lunasin i.n., dose not stated): These altered parameters were normalized by lunasin | DOI-lowered brain HVA level ([2]; lunasin i.n., dose not stated): These altered parameters were normalized by lunasin | DOI-lowered brain noradrenaline level ([2]; lunasin i.n., dose not stated): These altered parameters were normalized by lunasin | dopamine D1 receptor affinity [3]: has an affinity similar to that of dopamine | amphetamine-induced hyper-locomotion [4]: reduced amphetamine-induced hyper-locomotion | dopamine D2 receptor binding [5]: does not bind to the dopamine D2 receptor subtype | inhibition of [125I]DOI specific binding ([6]; 1 µM, HEK-293 cell membranes): 4.7% | inhibition of [125I]DOI specific binding ([6]; 10 µM, HEK-293 cell membranes): 10.3% | inhibition of [125I]DOI specific binding ([6]; 100 µM, HEK-293 cell membranes): 59.7% | binding activity ([6]; 100 µM, compared with 5-HT2A): more considerable | binding activity [6, 20]: did not show binding activity | receptor affinity ([6]; compared with DOI, abstract): low affinity of lunasin (at µM concentrations) | 5-HIAA (brain level, ng/g) [7, 21]: N | DA (brain dopamine level, ng/g) [7, 21]: N | NA (brain noradrenaline level, ng/g) [7, 21]: N | amphetamine-altered brain noradrenaline level (words) ([7]; p < 0.01): reversed amphetamine-induced and DOI-induced (both tested doses) noradrenaline alterations to the control values | amphetamine-altered brain noradrenaline level (words) ([7]; p < 0.01, listed as lunasin): normalized noradrenaline level to control values | 5-HIAA (brain level, ng/g) [7, 22]: N | 5-HT (brain level, ng/g) [7, 22]: N | DA (brain dopamine level, ng/g) [7, 22]: N | HVA (brain level, ng/g) [7, 22]: N | amphetamine-altered brain HVA level ([7]; lunasin 1 nmol/mouse i.n., p < 0.001): normalized the altered levels of HVA; also recorded: reversed to control value the elevated levels of dopamine and its metabolite HVA | amphetamine-increased brain serotonin level [7, 17]: decreased the augmented serotonin; also recorded: fully normalized the levels of serotonin | amphetamine-increased brain 5-HIAA level ([7]; lunasin 0.1 and 1 nmol/mouse i.n. (both doses), p < 0.0001): decreased the augmented serotonin (p < 0.01, Figure 2d) at both doses, as well as 5-HIAA levels; also recorded: fully normalized the levels of serotonin and its metabolite 5-HIAA (both tested doses) | amphetamine-increased brain dopamine level [7, 18]: reversed to control values; also recorded: reversed to control value the elevated levels of dopamine | brain monoamine levels, summary [7, 23]: fully normalized hyper-locomotion and brain monoamine levels | effect on locomotion altered by ketamine [8]: did not influence locomotion altered by ketamine | apomorphine-induced climbing activity [9]: reduced amphetamine-induced hyper-locomotion and apomorphine-induced climbing activity | brain DOPAC concentration, lunasin per se [10]: Neither lunasin per se nor amphetamine changed the DOPAC concentration | brain dopamine level, lunasin per se (words) [10]: significantly decreased dopamine level | brain dopamine level, lunasin per se (words) ([10]; listed as lunasin): significantly decreased dopamine levels | Locomotion (distance, cm) ([11]; lunasin 0.1 nmol/mouse i.n. 15 min after amphetamine 3 mg/kg i.p.): N | effect on amphetamine hyperlocomotion ([11]; lunasin 0.1 nmol/mouse i.n., p = 0.0031): considerably decreased; also recorded: normalized to control the level of behavioural changes after amphetamine injection | Locomotion (distance, cm) ([11]; lunasin 1 nmol/mouse i.n. 15 min after amphetamine 3 mg/kg i.p.): N | effect on amphetamine hyperlocomotion ([11]; lunasin 1 nmol/mouse i.n., p = 0.0018): considerably decreased; also recorded: normalized to control the level of behavioural changes after amphetamine injection | hyper-locomotion, summary [11, 23]: fully normalized hyper-locomotion | Locomotion (distance, cm) ([12]; lunasin 1 nmol/mouse i.n. 15 min after DOI 3 mg/kg i.p., 15-min open field, n = 7–8): N | effect on DOI hyperactivity (words) ([12]; n = 7–8): exerted protection against DOI-induced hyper-locomotion | effect on DOI hyperactivity (words) ([12]; n = 7–8, listed as lunasin): decreased hyperactivity | hyper-locomotion, summary [12, 19]: fully normalized hyper-locomotion | effect of lunasin per se on locomotion [13]: did not influence mouse activity | inhibition of [125I]DOI specific binding ([14]; 1 µM, HEK-293 cell membranes): 1.6% | inhibition of [125I]DOI specific binding ([14]; 10 µM, HEK-293 cell membranes): 2.6% | binding activity ([14]; 100 µM): weak binding activity | inhibition of [125I]DOI specific binding ([14]; 100 µM, HEK-293 cell membranes): 32.5% | binding activity [14, 20]: did not show binding activity | receptor affinity ([14]; compared with DOI, abstract): low affinity of lunasin (at µM concentrations)
